Laboratory results from patent publication US20260374792A1, “PHENYL-FREE BISCATIONIC QUATERNARY PHOSPHONIUM COMPOUNDS AS ANTIMICROBIAL AGENTS” (priority 2022, published 2026).
“Also recorded” adds a separate entry of the source.

How the values were obtained:
E. coli (MC4100) = assay: MIC against E. coli; type: cell-based; settings: Escherichia coli, 72 hours, 37 °C
Description: (§1) The term “minimum inhibitory concentration (MIC)” means the lowest concentration of an antimicrobial agent that will inhibit the visible growth of a microorganism after overnight incubation. MIC values against bacteria, for example, the Gram-positive Staphylococcus aureus and Enterococcus faecalis and the Gram-negative Escherichia coli and Pseudomonas aeruginosa were determined by standard methods. See also P. A. Wayne, Methods for Dilution Antimicrobial Tests for Bacteria that Grow Aerobically; Approved Standard, Ninth Edition, 2012, CLSI Document M07-A9, Vol. 32 No. 2.
(§2) Biological testing procedures were adapted from prior work by Melander and coworkers. For all biological assays, laboratory strains of methicillin-susceptible Staphylococcus aureus MSSA (SH1000), Staphylococcus aureus CA-MRSA (USA300-0114), Staphylococcus aureus HA-MRSA (ATCC 33591), Escherichia coli (MC4100), Enterococcus faecalis (OG1RF), Acinetobacter baumannii (ATCC 17978), were grown with shaking at 37 °C overnight from freezer stocks in 5 mL of the indicated media: SH1000, OG1RF, MC4100, USA300-0114, and ATCC 17978 were grown in BDTM Mueller-Hinton broth (MHB), whereas ATCC 33591 was grown in BDTM tryptic soy broth (TSB). The inoculum were then streaked onto Mueller-Hinton agar (MHA) plates and grown overnight at 37 °C. From the plates, single colonies were selected, diluted into 50 mL of fresh media and grown overnight at 37 °C with shaking for use in the MIC assays. Optical density (OD) measurements were obtained using a SpectraMax iD3 plate reader (Molecular Devices, United States).
(§3) Compounds were serially diluted two-fold from stock solutions (1.0 mM) to yield twelve 100 μL test concentrations, wherein the starting concentration of dimethyl sulfoxide (DMSO) was 2.5%. Overnight S. aureus, E. faecalis, E. coli, A. baumannii, USA300-0114 (CA-MRSA), and ATCC 33591 (HA-MRSA) cultures were diluted to ca. 10^6 CFU/mL in MHB or TSB and regrown to mid-exponential phase, as determined by optical density recorded at 600 nm (OD600). All cultures were then diluted again to ca. 10^6 CFU/mL and 100 μL were inoculated into each well of a U-bottom 96-well plate (Corning, 351177) containing 100 μL of compound solution. Plates were incubated statically at 37 °C for 72 hours upon which wells were evaluated visually for bacterial growth. The MIC was determined as the lowest concentration of compound resulting in no bacterial growth visible to the naked eye, based on the highest value in three independent experiments. Aqueous DMSO controls were conducted as appropriate for each compound.
(§4) The prepared library of biscationic amphiphilic compounds was assessed for performance as antibacterial disinfectants by determining the minimum inhibitory concentration (MIC) for each against a panel of bacteria. The bacteria selected for the study were chosen to evaluate the broad spectrum antimicrobial performance of the QPCs, and therefore, included both Gram-positive and Gram-negative bacterial strains, including those with known antimicrobial resistance mechanisms. These bacteria include the Gram-positive strains of methicillin-susceptible Staphylococcus aureus [MSSA; SH1000], community-acquired methicillin-resistant Staphylococcus aureus [CA-MRSA; USA 300-0114], hospital-acquired methicillin-resistant Staphylococcus aureus [HA-MRSA; ATCC 33591] and the […], Escherichia coli [MC4100], Acinetobacter baumannii [ATCC 17498] and Pseudomonas aeruginosa [PAO1].

A. baumannii = assay: MIC against A. baumannii; type: cell-based; settings: Acinetobacter baumannii, 72 h
Description: as §1, §2, §3, §4

red blood cells = assay: Red Blood Cell (RBC) Lysis Assay (lysis20); type: cell-based, sheep; settings: concentration inducing 20% RBC lysis; sheep blood, 1 hour, 37 °C
Description: RBC lysis assays were performed on mechanically defibrinated sheep blood (Hemostat Labs: DSB030). An aliquot of 1.5 mL blood was placed into a microcentrifuge tube and centrifuged at 3,800 rpm for ten minutes. The supernatant was removed, and the cells were resuspended with 1 mL of phosphate-buffered saline (PBS). The suspension was centrifuged as described above, the supernatant was removed, and cells were resuspended 4 additional times in 1 mL PBS. The final cell suspension was diluted twentyfold with PBS. Compounds were serially diluted with PBS two-fold from stock solutions (1.0 mM) to yield 100 μL of twelve test concentrations on a flat-bottom 96-well plate (Corning, 351172), wherein the starting concentration of DMSO was 2.5%. To each of the wells, 100 μL of the twentyfold suspension dilution was then inoculated. TritonX (1% by volume) served as a positive control (100% lysis marker) and sterile PBS served as a negative control (0% lysis marker). Samples were then placed in an incubator at 37 °C and shaken at 200 rpm. After 1 hour, the samples were centrifuged at 3,800 rpm for ten minutes. The absorbance of the supernatant was measured with a UV spectrometer at a 540 nm wavelength. The concentration inducing 20% RBC lysis was then calculated for each compound based upon the absorbances of the TritonX and PBS controls. Aqueous DMSO controls were conducted as appropriate for each compound.
The potential cytotoxicity of the compounds was also considered with the evaluation of hemolysis (lysis20) assays with 20% lysis of red blood cells serving as an indicator of potentially toxic compounds. Finally, the bioactivity of these compounds were benchmarked against a commercial benzalkonium chloride source (BAC; 70% benzyldimethyldodecylammonium chloride, and 30% benzyldimethyltetradecylammonium chloride) as well as some previously reported disinfectant compounds from the inventors' groups; included were bisQPC ^PhP6P-10,10 as well as ^PhP2P-10,10 and 12(2)12. A detailed description of the experimental procedures used to evaluate bioactivity and hemolysis assays are described above.

panel of bacteria = assay: MIC across the panel of bacteria (Gram-positive and Gram-negative); type: cell-based; settings: over the bacterial panel
Description: as §1, §2, §3, §4

SMILES	MIC (E. coli (MC4100))	MIC (A. baumannii)	Lysis20 (red blood cells)	antimicrobial activity / bioactivity (in words) (panel of bacteria)
CCCCCCCCCCCC[N+](C)(C)CC[N+](C)(C)CCCCCCCCCCCC [12(2)12, reference compound]	2 µM	2 µM	16 µM	almost identical bioactivity across the bacterial panel
CCCCCCCCCCCC[P+](C)(C)CC[P+](C)(C)CCCCCCCCCCC [^MeP2P-12,12]	4 µM	8 µM	8 µM	single-digit micromolar activity; also recorded: almost identical bioactivity across the bacterial panel
